For assay [1], the target named is purified human, His-tagged PRC2 complex (Homo sapiens, UniProt O75530+Q15910). In words: Hot Spot HMT assay: inhibition of PRC2 enzymatic activity (transfer of tritiated methyl from SAM to core histone, filter binding). The format is biochemical. To be noted: Inhibition of PRC2-mediated enzymatic activity; 10 nM PRC2 complex, 0.05 mg/ml core histone H3, 1 uM 3H-SAM, 1 hr at 30°C. The method, boiled down:
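Five-subunit complex (His-EZH2, Flag-EED, His-SUZ12, His-AEBP2, His-RbAp48) at 10 nM with 0.05 mg/ml core histone H3, pH 8 Tris buffer, 1% DMSO; 20 min compound pre-incubation at 30°C. Started with 1 uM [3H]-SAM, 1 hr at 30°C; tritiated H3 counted by scintillation. Compounds diluted from 1.0 µM top concentration.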

Assay [2] deals with PRC2-mediated histone H3 methylation. The assay can be described thus: Tri-Methyl Histone H3 (Lys 27) Sandwich ELISA in Pfeiffer cells: inhibition of PRC2-mediated histone H3 methylation. It counts as cell-based, human. To be noted: Homo sapiens; Inhibition of EZH2-mediated histone H3 trimethylation; Pfeiffer cells (EZH2 A677G), 96 hours incubation. The method, boiled down: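 Pfeiffer DLBCL cells (EZH2 A677G mutant) treated with 3-fold serial dilutions, 1µM to 0.15 nM final, for 96 hours at 37°C. Acid (0.4M HCl) histone extracts, neutralized, assayed by H3K27me3 sandwich ELISA with HRP/TMB read at 450 nm.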
(An ELISA detects its analyte on a solid surface through an enzyme-linked reagent.)

In assay [3] the test system is Karpas 422 cells. In words: Karpas 422 cell viability, CTG (Cell Titre Glo) assay. The settings on record: Homo sapiens; Inhibition of proliferation of Karpas 422 cells (EZH2 Y641N); viability measured Day 4, Day 7 or Day 11, time point of the tabulated values not stated. It counts as cell-based, human. The method, boiled down:
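Karpas 422 cells (EZH2 Y641N, DLBCL) plated at 1000 cells/well in RPMI with 20% FBS, exposed to compound 10µM down to 1.5nM in 3-fold steps at 37 °C. Viability by CellTiter-Glo on Days 4, 7 and 11; Day 11 plates re-fed with fresh medium and compound on Day 7. IC50 per time point.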

Chain of purified human, His-tagged PRC2 complex (Q15910 whole entry): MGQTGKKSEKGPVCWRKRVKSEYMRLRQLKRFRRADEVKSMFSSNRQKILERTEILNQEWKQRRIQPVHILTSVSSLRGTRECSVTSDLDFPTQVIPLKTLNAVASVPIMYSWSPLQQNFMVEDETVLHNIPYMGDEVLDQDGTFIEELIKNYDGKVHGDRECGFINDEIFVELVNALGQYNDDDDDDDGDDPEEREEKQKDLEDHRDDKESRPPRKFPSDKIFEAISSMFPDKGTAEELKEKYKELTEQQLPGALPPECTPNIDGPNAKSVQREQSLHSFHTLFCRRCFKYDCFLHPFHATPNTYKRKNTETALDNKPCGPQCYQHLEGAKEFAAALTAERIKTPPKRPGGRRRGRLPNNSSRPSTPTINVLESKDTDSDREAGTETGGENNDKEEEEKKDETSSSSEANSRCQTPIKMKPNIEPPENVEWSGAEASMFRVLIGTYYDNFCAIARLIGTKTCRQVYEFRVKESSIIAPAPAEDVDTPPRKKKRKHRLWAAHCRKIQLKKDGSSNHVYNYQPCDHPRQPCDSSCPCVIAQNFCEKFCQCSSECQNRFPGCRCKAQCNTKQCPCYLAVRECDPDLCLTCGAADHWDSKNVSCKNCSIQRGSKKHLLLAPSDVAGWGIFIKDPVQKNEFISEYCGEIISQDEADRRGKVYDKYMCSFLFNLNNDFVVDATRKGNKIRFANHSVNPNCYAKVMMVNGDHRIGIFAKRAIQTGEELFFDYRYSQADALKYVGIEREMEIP
Chain of purified human, His-tagged PRC2 complex (O75530 whole entry): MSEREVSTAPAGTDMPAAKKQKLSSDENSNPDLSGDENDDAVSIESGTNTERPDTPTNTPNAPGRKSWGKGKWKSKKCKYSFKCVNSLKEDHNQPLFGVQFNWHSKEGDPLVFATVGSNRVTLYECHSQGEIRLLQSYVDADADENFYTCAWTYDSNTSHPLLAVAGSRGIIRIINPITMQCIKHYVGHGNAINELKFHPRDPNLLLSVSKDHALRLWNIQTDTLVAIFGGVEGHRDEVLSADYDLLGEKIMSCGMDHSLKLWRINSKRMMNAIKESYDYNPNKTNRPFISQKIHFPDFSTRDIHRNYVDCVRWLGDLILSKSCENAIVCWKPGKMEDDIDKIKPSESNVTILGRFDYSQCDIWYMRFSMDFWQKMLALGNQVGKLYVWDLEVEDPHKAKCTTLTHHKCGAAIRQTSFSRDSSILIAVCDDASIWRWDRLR
Chain of purified human, His-tagged PRC2 complex (Q15022 whole entry partner): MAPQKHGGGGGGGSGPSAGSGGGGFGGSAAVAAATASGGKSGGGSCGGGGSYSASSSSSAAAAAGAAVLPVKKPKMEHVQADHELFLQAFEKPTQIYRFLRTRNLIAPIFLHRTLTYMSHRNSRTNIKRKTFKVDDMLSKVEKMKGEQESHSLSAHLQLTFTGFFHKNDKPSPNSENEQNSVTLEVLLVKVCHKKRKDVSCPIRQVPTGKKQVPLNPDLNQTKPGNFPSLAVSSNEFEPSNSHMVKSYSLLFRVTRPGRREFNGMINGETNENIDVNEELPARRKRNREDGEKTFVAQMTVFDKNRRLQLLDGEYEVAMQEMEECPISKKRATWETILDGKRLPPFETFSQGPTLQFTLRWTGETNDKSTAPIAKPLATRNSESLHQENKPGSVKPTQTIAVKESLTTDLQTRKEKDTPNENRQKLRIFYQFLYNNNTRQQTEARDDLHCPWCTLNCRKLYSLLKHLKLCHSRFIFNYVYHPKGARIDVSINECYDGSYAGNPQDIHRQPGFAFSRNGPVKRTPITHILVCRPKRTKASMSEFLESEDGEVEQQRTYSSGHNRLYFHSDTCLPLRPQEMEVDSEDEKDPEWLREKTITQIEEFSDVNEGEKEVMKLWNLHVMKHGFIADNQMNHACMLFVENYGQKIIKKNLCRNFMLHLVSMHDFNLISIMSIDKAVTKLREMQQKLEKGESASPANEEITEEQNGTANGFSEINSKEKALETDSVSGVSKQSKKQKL
Chain of purified human, His-tagged PRC2 complex (Q6ZN18 whole entry partner): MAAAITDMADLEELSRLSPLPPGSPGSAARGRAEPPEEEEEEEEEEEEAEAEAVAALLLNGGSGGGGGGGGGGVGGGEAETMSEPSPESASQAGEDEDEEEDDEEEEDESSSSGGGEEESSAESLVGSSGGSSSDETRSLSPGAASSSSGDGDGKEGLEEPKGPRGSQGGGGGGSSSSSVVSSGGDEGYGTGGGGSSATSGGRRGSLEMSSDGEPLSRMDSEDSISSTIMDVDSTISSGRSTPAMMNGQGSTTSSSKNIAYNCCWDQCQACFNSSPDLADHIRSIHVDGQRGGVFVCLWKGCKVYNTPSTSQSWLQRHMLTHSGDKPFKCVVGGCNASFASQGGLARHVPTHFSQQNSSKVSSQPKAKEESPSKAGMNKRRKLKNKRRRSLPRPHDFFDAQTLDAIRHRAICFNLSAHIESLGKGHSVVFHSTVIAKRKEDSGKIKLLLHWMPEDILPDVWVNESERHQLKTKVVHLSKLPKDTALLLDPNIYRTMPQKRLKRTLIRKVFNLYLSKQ
Chain of purified human, His-tagged PRC2 complex (Q09028 whole entry partner): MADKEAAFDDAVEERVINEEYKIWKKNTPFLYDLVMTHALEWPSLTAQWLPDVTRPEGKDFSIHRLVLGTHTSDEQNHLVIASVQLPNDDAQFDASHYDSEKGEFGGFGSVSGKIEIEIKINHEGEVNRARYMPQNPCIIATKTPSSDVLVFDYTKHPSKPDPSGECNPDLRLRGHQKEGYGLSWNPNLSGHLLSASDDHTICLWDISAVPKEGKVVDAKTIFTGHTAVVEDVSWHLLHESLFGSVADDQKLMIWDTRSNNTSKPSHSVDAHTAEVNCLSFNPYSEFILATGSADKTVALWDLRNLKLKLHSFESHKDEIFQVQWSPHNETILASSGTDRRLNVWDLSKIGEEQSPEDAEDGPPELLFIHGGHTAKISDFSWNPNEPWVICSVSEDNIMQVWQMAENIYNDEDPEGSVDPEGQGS

The term IC50 denotes the concentration that inhibits the measured activity by half. The low end stands for higher potency, the high end for lower potency. Turning to `Cc1ncccc1-c1cnc(NCc2c(F)ccc3c2CCO3)n2cc(C(N)=O)nc12` [Example 137, 5-(((5-fluoro-2,3-dihydrobenzofuran-4-yl)methyl)amino)-8-(2-methylpyridin-3-yl)imidazo[1,2-c]pyrimidine-2-carboxamide], the IC50 in assay [1] was less than 100 nM; in assay [2] it was 100 to 500 nM; in assay [3], not above 250 nM.
As to `Cn1nc(C2CC2)cc1-c1cnc(NCc2c(F)ccc3c2CCO3)n2cc(C#N)nc12` [Example 144, 8-(3-cyclopropyl-1-methyl-1H-pyrazol-5-yl)-5-(((5-fluoro-2,3-dihydrobenzofuran-4-yl)methyl)amino)imidazo[1,2-c]pyrimidine-2-carbonitrile], the half-maximal inhibitory concentration (IC50) is less than 100 nM in assay [1], 100 to 500 nM in assay [2] and not above 250 nM in assay [3].
As to `Cc1nc(-c2cnc(NCc3c(F)ccc4c3CCO4)n3cc(C#N)nc23)c(C)s1` [Example 145, 8-(2,5-dimethylthiazol-4-yl)-5-(((5-fluoro-2,3-dihydrobenzofuran-4-yl)methyl)amino)imidazo[1,2-c]pyrimidine-2-carbonitrile], the figures for the IC50 in assay [1], in assay [2] and in assay [3] were 100 to 500 nM, 100 to 500 nM and not above 250 nM, respectively.
In the case of `N#Cc1cn2c(NCc3c(F)ccc4c3CCO4)ncc(-c3ccccn3)c2n1` [Example 146, 5-(((5-fluoro-2,3-dihydrobenzofuran-4-yl)methyl)amino)-8-(pyridin-2-yl)imidazo[1,2-c]pyrlmldlne-2-carbonltrlle], the IC50 in assay [1] is 100 to 500 nM; in assay [2], 100 to 500 nM; in assay [3] it was not above 250 nM.
Regarding `Cc1nc(CN(C)C)ccc1-c1cnc(NCc2c(F)ccc3c2CCO3)n2cc(C#N)nc12` [Example 152, 8-(6-((dimethylamino)methyl)-2-methylpyridin-3-yl)-5-(((5-fluoro-2,3-dihydrobenzofuran-4-yl)methyl)amino)imidazo[1,2-c]pyrimidine-2-carbonitrile], the values for the IC50 in assay [1], in assay [2] and in assay [3] were 100 to 500 nM, 100 to 500 nM and not above 250 nM, respectively.
In the case of `N#Cc1cn2c(NCc3c(F)ccc4c3CCO4)ncc(-c3ccn(CC4CCCO4)n3)c2n1` (stereo not drawn) [Example 153, 5-(((5-fluoro-2,3-dihydrobenzofuran-4-yl)methyl)amino)-8-(1-((tetrahydrofuran-2-yl)methyl)-1H-pyrazol-3-yl)imidazo[1,2-c]pyrimidine-2-carbonitrile], the values for the IC50 in assay [1], in assay [2] and in assay [3] were 100 to 500 nM, 100 to 500 nM and 250 to 500 nM, respectively.
Take `Cn1cccc(-c2cnc(NCc3c(F)ccc4c3CCO4)n3cc(C#N)nc23)c1=O` [Example 156, 5-(((5-fluoro-2,3-dihydrobenzofuran-4-yl)methyl)amino)-8-(1-methyl-2-oxo-1,2-dihydropyridin-3-yl)imidazo[1,2-c]pyrimidine-2-carbonitrile]: the half-inhibitory concentration (IC50) is 100 to 500 nM in assay [1], more than 500 nM in assay [2] and more than 500 nM in assay [3].
Turning to `COCCOc1ccc(-c2cnc(NCc3c(F)ccc4c3CCO4)n3cc(C#N)nc23)cn1` [Example 158, 5-(((5-fluoro-2,3-dihydrobenzofuran-4-yl)methyl)amino)-8-(6-(2-methoxyethoxy)pyridin-3-yl)imidazo[1,2-c]pyrimidine-2-carbonitrile], the IC50 fell in the range of 100 to 500 nM in assay [1], 100 to 500 nM in assay [2] and 250 to 500 nM in assay [3].
As for `CN1CCc2cc(-c3cnc(NCc4c(F)ccc5c4CCO5)n4cc(C#N)nc34)ccc2C1` [Example 159, 5-(((5-fluoro-2,3-dihydrobenzofuran-4-yl)methyl)amino)-8-(2-methyl-1,2,3,4-tetrahydroisoquinolin-6-yl)imidazo[1,2-c]pyrimidine-2-carbonitrile], the IC50 was 100 to 500 nM in assay [1], not above 100 nM in assay [2] and not above 250 nM in assay [3].
With `CN1CCCC1c1ccc(-c2cnc(NCc3c(F)ccc4c3CCO4)n3cc(C#N)nc23)cc1` (stereo not drawn) [Example 160, 5-(((5-fluoro-2,3-dihydrobenzofuran-4-yl)methyl)amino)-8-(4-(1-methylpyrrolidin-2-yl)phenyl)imidazo[1,2-c]pyrimidine-2-carbonitrile], the IC50 in assay [1] was less than 100 nM; in assay [2] it was not above 100 nM; in assay [3], not above 250 nM.
For the compound `COCCOc1ccc(-c2cnc(NCc3c(F)ccc4c3CCO4)n3cc(C#N)nc23)cc1` [Example 161, 5-(((5-fluoro-2,3-dihydrobenzofuran-4-yl)methyl)amino)-8-(4-(2-methoxyethoxy)phenyl)imidazo[1,2-c]pyrimidine-2-carbonitrile], the IC50 in assay [1] is less than 100 nM; in assay [2] it was 100 to 500 nM; in assay [3] it was not above 250 nM.
For `N#Cc1cn2c(NCc3c(F)ccc4c3CCO4)ncc(-c3ccc(C4CCCO4)cc3)c2n1` (stereo not drawn) [Example 162, 5-(((5-fluoro-2,3-dihydrobenzofuran-4-yl)methyl)amino)-8-(4-(tetrahydrofuran-2-yl)phenyl)imidazo[1,2-c]pyrimidine-2-carbonitrile], in that order: less than 100 nM, 100 to 500 nM and 250 to 500 nM.
`CN(C)CCc1ccc(-c2cnc(NCc3c(F)ccc4c3CCO4)n3cc(C#N)nc23)cc1` [Example 163, 8-(4-(2-(dimethylamino)ethyl)phenyl)-5-(((5-fluoro-2,3-dihydrobenzofuran-4-yl)methyl)amino)imidazo[1,2-c]pyrimidine-2-carbonitrile]: the IC50 is less than 100 nM in assay [1], 100 to 500 nM in assay [2] and not above 250 nM in assay [3].
For `CCOP(=O)(OCC)c1ccc(-c2cnc(NCc3c(F)ccc4c3CCO4)n3cc(C#N)nc23)cc1` [Example 164, diethyl (4-(2-cyano-5-(((5-fluoro-2,3-dihydrobenzofuran-4-yl)methyl)amino)imidazo[1,2-c]pyrimidin-8-yl)phenyl)phosphonate], in that order: less than 100 nM, not above 100 nM and not above 250 nM.
For `COC(=O)c1ccc(-c2cnc(NCc3c(F)ccc4c3CCO4)n3cc(C#N)nc23)cn1` [Example 166, methyl 5-(2-cyano-5-(((5-fluoro-2,3-dihydrobenzofuran-4-yl)methyl)amino)imidazo[1,2-c]pyrimidin-8-yl)picolinate], the IC50 in assay [1] is less than 100 nM; in assay [2], more than 500 nM; in assay [3] it was 250 to 500 nM.
Take `COC(=O)c1ccc(-c2cnc(NCc3c(F)ccc4c3CCO4)n3cc(C#N)nc23)cc1` [Example 167, methyl 4-(2-cyano-5-(((5-fluoro-2,3-dihydrobenzofuran-4-yl)methyl)amino)imidazo[1,2-c]pyrimidin-8-yl)benzoate]: the IC50 in assay [1] is 100 to 500 nM; in assay [2] it was more than 500 nM; in assay [3], not above 250 nM.
Turning to `CN1CCc2cc(-c3cnc(NCc4c(F)ccc5c4CCO5)n4cc(C#N)nc34)ccc2C1=O` [Example 168, 5-(((5-fluoro-2,3-dihydrobenzofuran-4-yl)methyl)amino)-8-(2-methyl-1-oxo-1,2,3,4-tetrahydroisoquinolin-6-yl)imidazo[1,2-c]pyrimidine-2-carbonitrile], the half-inhibitory concentration (IC50) in assay [1] was less than 100 nM; in assay [2], 100 to 500 nM; in assay [3], not above 250 nM.
On to `COC(=O)c1cc(-c2cnc(NCc3c(F)ccc4c3CCO4)n3cc(C#N)nc23)n(C)n1` [Example 169, methyl 5-(2-cyano-5-(((5-fluoro-2,3-dihydrobenzofuran-4-yl)methyl)amino)imidazo[1,2-c]pyrimidin-8-yl)-1-methyl-1H-pyrazole-3-carboxylate], for which the IC50 in assay [1] was less than 100 nM; in assay [2], 100 to 500 nM; in assay [3], not above 250 nM.
Regarding `CN(C)C(=O)c1cc(-c2cnc(NCc3c(F)ccc4c3CCO4)n3cc(C#N)nc23)n(C)n1` [Example 170, 5-(2-cyano-5-(((5-fluoro-2,3-dihydrobenzofuran-4-yl)methyl)amino)imidazo[1,2-c]pyrimidin-8-yl)-N,N,1-trimethyl-1H-pyrazole-3-carboxamide], the results for the concentration for half-maximal inhibition (IC50) in assay [1], in assay [2] and in assay [3] were less than 100 nM, not above 100 nM and not above 250 nM, respectively.
In the case of `CN(C)C1(c2ccc(-c3cnc(NCc4c(F)ccc5c4CCO5)n4cc(C#N)nc34)cc2)CC1` [Example 171, 8-(4-(1-(dimethylamino)cyclopropyl)phenyl)-5-(((5-fluoro-2,3-dihydrobenzofuran-4-yl)methyl)amino)imidazo[1,2-c]pyrimidine-2-carbonitrile], the IC50 is less than 100 nM in assay [1], 100 to 500 nM in assay [2] and not above 250 nM in assay [3].
As for `N#Cc1cn2c(NCc3c(F)ccc4c3CCO4)ncc(-c3ccc4c(c3)CCNC4=O)c2n1` [Example 172, 5-(((5-fluoro-2,3-dihydrobenzofuran-4-yl)methyl)amino)-8-(1-oxo-1,2,3,4-tetrahydroisoquinolin-6-yl)imidazo[1,2-c]pyrimidine-2-carbonitrile], the IC50 is less than 100 nM in assay [1], 100 to 500 nM in assay [2] and 250 to 500 nM in assay [3].

(Values after patent publication EP4043466B1, “PRC2 INHIBITORS” (Mirati Therapeutics, Inc., priority 2018, dated 2019).)
